# Assay results published in ChEMBL document CHEMBL1201862, “PubChem BioAssay data set” (2004).
# Calls of active or inactive are those of the source.
# Columns and labels:
# CAAX prenyl protease 2 = CAAX prenyl protease 2 (Homo sapiens, UniProt Q9Y256); assay: inhibition of Ras-converting CAAX protease Rce1 – biochemical, yeast membranes, quenched-peptide fluorescence, cherry-pick, dose response (AID 588849)
# [1] = NIH-3T3 fibroblast cytotoxicity, dose response, cytotoxicity control, cell-based, fluorescence, Alamar Blue, secondary assay (AID 2327); type: functional;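 further: NIH-3T3 mouse fibroblasts cultured with fluconazole at 8 µg/mL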
# [2] = fluconazole-exposed Candida albicans growth modulators – fluorescence, retest, confirmation (AID 2467); type: functional, cell-based
# [3] = molecular target: Serine/threonine-protein phosphatase (Candida dubliniensis (strain CD36 / CBS 7987 / NCPF 3949 / NRRLY-17841) (Yeast), UniProt B9W6M3); assay: blockers of CaCl2-induced CDRE-lacZ signaling – S. cerevisiae, luminescence, secondary, dose response (AID 2388); type: functional, cell-based;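 further: yeast reporter cells carrying a calcineurin-responsive lacZ construct stimulated with calcium chloride; luminescent beta-galactosidase reporter signal in whole cells rather than isolated phosphatase activity; potency for inhibition where a drop in reporter signal means calcineurin blockade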
# Chain of Serine/threonine-protein phosphatase (B9W6M3 whole entry): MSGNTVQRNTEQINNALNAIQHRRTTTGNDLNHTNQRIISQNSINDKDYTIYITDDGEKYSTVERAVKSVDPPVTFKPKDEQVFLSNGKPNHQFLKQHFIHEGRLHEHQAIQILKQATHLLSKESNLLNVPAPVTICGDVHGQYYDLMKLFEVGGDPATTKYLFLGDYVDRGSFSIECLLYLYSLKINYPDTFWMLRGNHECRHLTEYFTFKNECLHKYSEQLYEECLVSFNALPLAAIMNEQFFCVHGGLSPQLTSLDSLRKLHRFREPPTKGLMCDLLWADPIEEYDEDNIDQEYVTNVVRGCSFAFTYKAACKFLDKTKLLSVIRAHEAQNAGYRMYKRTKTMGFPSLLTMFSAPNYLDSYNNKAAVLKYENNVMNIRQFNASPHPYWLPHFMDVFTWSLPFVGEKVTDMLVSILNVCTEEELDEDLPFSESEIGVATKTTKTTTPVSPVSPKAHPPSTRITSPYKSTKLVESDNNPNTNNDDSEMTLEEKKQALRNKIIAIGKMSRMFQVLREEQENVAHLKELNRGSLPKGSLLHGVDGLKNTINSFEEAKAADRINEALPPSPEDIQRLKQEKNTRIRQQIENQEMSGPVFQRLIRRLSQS
# [4] = molecular target: ATP-dependent molecular chaperone HSP82 (Candida albicans (strain WO-1) (Yeast), UniProt C4YTQ8); assay: steroid-induced GRE reporter decrease in yeast – S. cerevisiae, luminescence, Hsp90 inhibitor project, dose response (AID 2400); type: functional, cell-based;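 further: beta-galactosidase luminescence from glucocorticoid response element reporter as proxy for Hsp90 function; inhibitor potency where signal loss means Hsp90 inhibition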
# Chain of ATP-dependent molecular chaperone HSP82 (C4YTQ8 whole entry): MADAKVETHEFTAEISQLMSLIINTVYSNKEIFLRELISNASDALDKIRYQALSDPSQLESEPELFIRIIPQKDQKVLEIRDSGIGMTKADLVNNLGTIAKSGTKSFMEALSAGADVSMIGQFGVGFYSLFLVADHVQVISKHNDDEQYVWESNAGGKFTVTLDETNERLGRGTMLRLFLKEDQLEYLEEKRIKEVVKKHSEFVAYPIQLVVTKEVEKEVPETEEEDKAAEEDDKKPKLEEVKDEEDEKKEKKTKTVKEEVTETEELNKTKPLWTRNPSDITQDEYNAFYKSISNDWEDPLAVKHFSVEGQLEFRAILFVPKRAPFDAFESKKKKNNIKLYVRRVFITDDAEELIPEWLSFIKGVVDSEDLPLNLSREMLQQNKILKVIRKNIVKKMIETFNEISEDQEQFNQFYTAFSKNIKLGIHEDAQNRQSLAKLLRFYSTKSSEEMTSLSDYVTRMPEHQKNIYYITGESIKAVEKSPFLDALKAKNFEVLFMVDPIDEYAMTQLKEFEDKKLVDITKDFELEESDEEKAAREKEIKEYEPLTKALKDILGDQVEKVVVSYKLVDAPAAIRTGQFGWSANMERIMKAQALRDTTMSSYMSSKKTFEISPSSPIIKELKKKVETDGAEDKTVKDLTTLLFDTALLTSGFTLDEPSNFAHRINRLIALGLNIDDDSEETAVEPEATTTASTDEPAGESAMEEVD
# [5] = Luminescence Cell-Based Dose Response HTS to Identify Inhibitors of Luciferase Translation or Activity in H4-C Neuroglioblastoma Cells. [Related pubchem assays: 1813 (Primary HTS), 1827 (Project Summary)]; type: functional
# [6] = Luminescence Cell-Based Dose Response HTS to Identify Activators of Luciferase Translation or Activity in H4-C Neuroglioblastoma Cells. [Related pubchem assays: 1829 (Project Summary), 1814 (Primary HTS)]; type: functional
# [7] = luciferase reporter signal suppression in cells – H4 neuroglioma cells, luminescence, dose response (AID 1990); type: functional, cell-based
# [8] = Luminescence Cell-Based Dose Retest to Confirm Activators of 5'UTR Stem-Loop Driven Alpha-Synuclein mRNA Translation in H4 Neuroglioblastoma Cells. [Related pubchem assays (depositor defined):AID1813, AID1829]; type: functional
# [9] = Luminescence Cell-Based Dose Response HTS to Identify Activators of 5'UTR Stem-Loop Driven Prion Protein mRNA Translation in H4-C Neuroglioblastoma Cells. [Related pubchem assays: 1829 (Project Summary), 1814 (Primary HTS)]; type: functional
# [10] = Luminescence Cell-Based Dose HTS Response to Identify Inhibitors of 5'UTR Stem-Loop Driven Prion Protein mRNA Translation in H4-C Neuroglioblastoma Cells. [Related pubchem assays (depositor defined):AID1814, AID1827]; type: functional
# [11] = Luminescence Cell-Based Dose Response HTS to Identify Inhibitors of 5'UTR Stem-Loop Driven Prion Protein mRNA Translation in H4 Neuroglioblastoma Cells. [Related pubchem assays: 1827 (Project Summary), 1813 (Primary HTS)]; type: functional
# [12] = alpha-synuclein stem-loop luciferase translation blockers – H4 neuroglioma cells, luminescence, confirmation (AID 1988); type: functional, cell-based
# [13] = Luminescence Cell-Based Dose Confirmation HTS to Identify Inhibitors of 5'UTR Stem-Loop Driven Alpha-Synuclein mRNA Translation in H4 Neuroglioblastoma Cells. [Related pubchem assays: 1827 (Project Summary), 1813 (Primary HTS)]; type: functional
# HeLa = assay: viability loss in HeLa cells – cell-based, 24 h, cherry-picked samples, cytotoxicity control, dose response (AID 504726); type: functional; details: Homo sapiens;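 further: potency for cytotoxicity as loss of luminescence signal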
# ORF 73 = ORF 73 (Human herpesvirus 8, UniProt O40947); assay: KSHV LANA DNA-binding disruption – biochemical, fluorescence polarization, cherry-picked samples, dose response (AID 504725); set-up: species or system Human gammaherpesvirus 8;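 further: fluorescence polarization of a labeled DNA duplex reporting LANA DNA binding; potency is for inhibitors that block LANA binding to the DNA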
# Troponin, cardiac muscle = Troponin, cardiac muscle (Homo sapiens, UniProt P19429+P45379+P63316); assay: Fluorescence-based biochemical high throughput dose response assay for activators of the calcium sensitivity of cardiac Regulated Thin Filaments (RTF). [Related pubchem assays (depositor defined):AID493008, AID493018, AID504382, AID504383]; type: protein-complex assay
# [14] = molecular target: UDP-galactopyranose mutase (Mycobacterium tuberculosis, UniProt P9WIQ1); assay: Inhibitors of Mycobacterium tuberculosis UDP-galactopyranose mutase (UGM) enzyme Measured in Biochemical System Using Plate Reader - 2105-02_Inhibitor_Dose_CherryPick_Activity. [Related pubchem assays (depositor defined):AID504439]
# Chain of UDP-galactopyranose mutase (P9WIQ1 whole entry): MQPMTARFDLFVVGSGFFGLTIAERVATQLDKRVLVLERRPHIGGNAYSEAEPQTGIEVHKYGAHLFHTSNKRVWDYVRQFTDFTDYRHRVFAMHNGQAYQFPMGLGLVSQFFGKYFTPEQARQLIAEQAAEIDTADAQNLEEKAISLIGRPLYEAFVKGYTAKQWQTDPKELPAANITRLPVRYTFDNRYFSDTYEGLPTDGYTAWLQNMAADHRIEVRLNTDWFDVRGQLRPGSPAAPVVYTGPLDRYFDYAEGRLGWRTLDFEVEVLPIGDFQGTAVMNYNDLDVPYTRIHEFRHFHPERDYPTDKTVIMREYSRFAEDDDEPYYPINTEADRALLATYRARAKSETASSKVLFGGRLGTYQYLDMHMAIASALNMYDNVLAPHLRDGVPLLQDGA
# Keap1/Nrf2 = Keap1/Nrf2 (Homo sapiens, UniProt Q14145); assay: disruptors of Keap1 binding to Nrf2 peptide – biochemical, fluorescence polarization, cherry-picked samples, dose response (AID 588683)
# Chain of Keap1/Nrf2 (Q16236 whole entry): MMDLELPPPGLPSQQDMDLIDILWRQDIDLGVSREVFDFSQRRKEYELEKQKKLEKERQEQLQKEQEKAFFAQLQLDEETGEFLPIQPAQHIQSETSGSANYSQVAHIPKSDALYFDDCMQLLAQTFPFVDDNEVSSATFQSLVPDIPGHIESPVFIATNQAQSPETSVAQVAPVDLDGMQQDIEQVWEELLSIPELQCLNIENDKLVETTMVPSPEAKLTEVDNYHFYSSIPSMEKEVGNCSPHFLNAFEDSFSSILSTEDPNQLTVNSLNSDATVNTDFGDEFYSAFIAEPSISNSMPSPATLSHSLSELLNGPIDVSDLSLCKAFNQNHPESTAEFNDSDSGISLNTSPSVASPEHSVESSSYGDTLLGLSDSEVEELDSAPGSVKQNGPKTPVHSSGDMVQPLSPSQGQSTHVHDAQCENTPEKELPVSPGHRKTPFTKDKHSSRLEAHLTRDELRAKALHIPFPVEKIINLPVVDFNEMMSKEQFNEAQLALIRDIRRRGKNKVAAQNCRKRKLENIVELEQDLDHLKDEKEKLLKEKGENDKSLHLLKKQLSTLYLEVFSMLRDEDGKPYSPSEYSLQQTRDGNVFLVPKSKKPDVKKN
# Chain of Keap1/Nrf2 (Q14145 whole entry): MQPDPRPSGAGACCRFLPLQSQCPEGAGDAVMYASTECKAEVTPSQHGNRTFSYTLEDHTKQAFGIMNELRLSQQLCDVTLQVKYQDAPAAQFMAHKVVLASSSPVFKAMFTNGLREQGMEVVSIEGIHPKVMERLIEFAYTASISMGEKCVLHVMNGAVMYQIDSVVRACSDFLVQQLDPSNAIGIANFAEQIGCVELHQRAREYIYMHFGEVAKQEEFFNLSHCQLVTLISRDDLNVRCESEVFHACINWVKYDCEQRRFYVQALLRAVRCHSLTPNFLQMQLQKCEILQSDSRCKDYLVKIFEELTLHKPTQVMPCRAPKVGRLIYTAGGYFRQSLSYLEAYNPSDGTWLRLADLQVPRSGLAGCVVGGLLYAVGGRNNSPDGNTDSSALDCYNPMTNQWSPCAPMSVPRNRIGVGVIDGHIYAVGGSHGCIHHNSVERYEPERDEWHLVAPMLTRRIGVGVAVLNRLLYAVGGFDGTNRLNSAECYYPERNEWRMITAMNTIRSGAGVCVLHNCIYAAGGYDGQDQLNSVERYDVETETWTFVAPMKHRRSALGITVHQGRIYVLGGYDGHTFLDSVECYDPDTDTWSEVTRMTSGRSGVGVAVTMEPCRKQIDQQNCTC
# [15] = molecular target: T1, Short transient receptor potential channel 4 (Mus musculus, UniProt Q9QUQ5); assay: calcium entry via TRPC4 opening agents – cell-based, HEK293 TRPC4/mu-opioid, Fluo-4 calcium, dose response (AID 434937); type: functional
# T1 sequence (Q9QUQ5 whole entry): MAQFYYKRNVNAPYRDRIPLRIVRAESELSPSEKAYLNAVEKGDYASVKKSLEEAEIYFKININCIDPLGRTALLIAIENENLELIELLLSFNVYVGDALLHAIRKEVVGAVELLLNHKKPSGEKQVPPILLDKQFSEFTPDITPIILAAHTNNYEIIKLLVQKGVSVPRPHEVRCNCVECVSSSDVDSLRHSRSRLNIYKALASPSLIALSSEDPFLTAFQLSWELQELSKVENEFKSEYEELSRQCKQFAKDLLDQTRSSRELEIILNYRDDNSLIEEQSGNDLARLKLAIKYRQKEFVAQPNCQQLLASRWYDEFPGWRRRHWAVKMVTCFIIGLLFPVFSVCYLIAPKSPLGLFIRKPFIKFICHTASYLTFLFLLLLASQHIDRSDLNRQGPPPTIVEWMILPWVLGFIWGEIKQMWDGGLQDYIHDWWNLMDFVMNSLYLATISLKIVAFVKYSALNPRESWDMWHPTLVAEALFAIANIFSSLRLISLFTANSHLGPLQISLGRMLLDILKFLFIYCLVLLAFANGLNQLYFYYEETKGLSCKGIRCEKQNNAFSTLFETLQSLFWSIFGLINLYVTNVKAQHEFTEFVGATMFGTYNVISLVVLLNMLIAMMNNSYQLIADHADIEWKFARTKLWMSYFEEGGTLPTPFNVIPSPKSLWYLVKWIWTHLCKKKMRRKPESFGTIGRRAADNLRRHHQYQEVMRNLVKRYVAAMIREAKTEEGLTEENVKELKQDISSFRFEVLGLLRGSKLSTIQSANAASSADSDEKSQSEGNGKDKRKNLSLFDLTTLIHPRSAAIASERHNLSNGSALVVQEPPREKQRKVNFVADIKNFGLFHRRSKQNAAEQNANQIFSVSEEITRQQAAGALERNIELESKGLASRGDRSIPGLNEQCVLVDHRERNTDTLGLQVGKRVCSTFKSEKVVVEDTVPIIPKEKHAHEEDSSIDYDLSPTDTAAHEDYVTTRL
# [16] = molecular target: Delta-type opioid receptor (Homo sapiens, UniProt P41143); assay: Counterscreen for agonists of heterodimerization of the mu 1 (OPRM1) and delta 1 (OPRD1) opioid receptors: Luminescence-based cell-based high throughput dose response assay to identify agonists of OPRD1 homodimerization. [Related pubchem assays (depositor defined):AID504326, AID504355, AID504692, AID504904, AID504905]; type: functional
# Chain of Delta-type opioid receptor (P41143 whole entry): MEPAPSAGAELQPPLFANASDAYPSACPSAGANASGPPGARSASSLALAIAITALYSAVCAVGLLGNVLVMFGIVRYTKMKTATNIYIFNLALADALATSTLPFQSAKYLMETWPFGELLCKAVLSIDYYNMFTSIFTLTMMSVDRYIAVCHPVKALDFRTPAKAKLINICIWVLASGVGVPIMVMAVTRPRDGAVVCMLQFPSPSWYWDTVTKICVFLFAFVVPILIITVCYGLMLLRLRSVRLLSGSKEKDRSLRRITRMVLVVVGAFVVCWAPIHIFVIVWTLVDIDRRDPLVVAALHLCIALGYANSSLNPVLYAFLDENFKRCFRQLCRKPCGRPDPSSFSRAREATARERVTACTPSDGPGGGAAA
# Mu-type opioid receptor = Mu-type opioid receptor (Homo sapiens, UniProt P35372); assay: Counterscreen for agonists of heterodimerization of the mu 1 (OPRM1) and delta 1 (OPRD1) opioid receptors: Luminescence-based cell-based high throughput dose response assay to identify agonists of OPRM1 homodimerization.; type: functional;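 further: U2OS cells expressing OPRM1 and beta-arrestin as split beta-galactosidase partners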
# Chain of Mu-type opioid receptor (P35372 whole entry): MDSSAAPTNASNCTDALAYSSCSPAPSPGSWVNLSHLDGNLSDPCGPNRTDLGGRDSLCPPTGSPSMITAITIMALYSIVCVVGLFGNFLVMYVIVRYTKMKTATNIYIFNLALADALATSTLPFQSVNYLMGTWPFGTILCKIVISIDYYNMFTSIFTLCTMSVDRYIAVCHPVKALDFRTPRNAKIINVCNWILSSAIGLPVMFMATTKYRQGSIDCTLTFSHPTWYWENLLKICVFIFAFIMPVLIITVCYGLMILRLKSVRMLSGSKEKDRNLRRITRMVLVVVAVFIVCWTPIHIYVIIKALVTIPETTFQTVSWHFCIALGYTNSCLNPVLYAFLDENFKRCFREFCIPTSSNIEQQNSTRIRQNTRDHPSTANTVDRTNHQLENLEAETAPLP
# [17] = molecular target: 5-hydroxytryptamine receptor 5A (Homo sapiens, UniProt P47898); assay: Counterscreen for agonists of OPRM1-OPRD1 heterodimerization: luminescence-based cell-based high throughput dose response assay to identify agonists of 5-hydroxytryptamine (serotonin) 5A receptor (HTR5A). [Related pubchem assays (depositor defined):AID504326, AID504355, AID504692, AID504904, AID504905]; type: functional
# Chain of 5-hydroxytryptamine receptor 5A (P47898 whole entry): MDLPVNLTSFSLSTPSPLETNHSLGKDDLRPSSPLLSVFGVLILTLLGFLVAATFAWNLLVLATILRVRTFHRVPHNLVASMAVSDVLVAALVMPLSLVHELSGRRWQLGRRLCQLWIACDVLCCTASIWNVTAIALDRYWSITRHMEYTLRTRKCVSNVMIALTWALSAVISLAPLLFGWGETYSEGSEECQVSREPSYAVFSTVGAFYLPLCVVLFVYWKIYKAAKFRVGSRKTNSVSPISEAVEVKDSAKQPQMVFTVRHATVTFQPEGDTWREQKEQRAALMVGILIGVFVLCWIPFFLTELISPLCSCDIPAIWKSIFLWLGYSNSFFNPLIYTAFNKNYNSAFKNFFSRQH
# [18] = molecular target: Voltage-gated inwardly rectifying potassium channel KCNH2 (Homo sapiens, UniProt Q12809);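 further: confirmatory quantitative high-throughput screen measuring inhibition of hERG channel activity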
# Chain of CAAX prenyl protease 2 (Q9Y256 whole entry): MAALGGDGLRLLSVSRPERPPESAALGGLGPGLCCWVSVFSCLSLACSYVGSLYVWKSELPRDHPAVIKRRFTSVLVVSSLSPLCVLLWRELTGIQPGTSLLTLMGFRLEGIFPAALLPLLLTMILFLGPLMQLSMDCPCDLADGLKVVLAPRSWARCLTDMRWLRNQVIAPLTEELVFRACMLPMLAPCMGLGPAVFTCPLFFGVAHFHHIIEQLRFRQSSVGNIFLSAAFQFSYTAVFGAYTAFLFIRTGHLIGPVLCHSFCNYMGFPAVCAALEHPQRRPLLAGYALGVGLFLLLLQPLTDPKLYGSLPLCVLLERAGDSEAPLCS
compound,measurement,setting,value
CC(C)C(NC(=O)c1ccco1)C(=O)NCC(c1ccco1)N1CCCCC1 (centres undefined),AC50,CAAX prenyl protease 2,48.9 µM (active)
COc1cc2c(cc1NC(=O)c1ccco1)CCCC2,EC50,[1],> 150 µM (inactive)
same,EC50,[2],0.841 µM (active)
same,EC50,[3],> 180 µM (inactive)
same,EC50,[4],> 150 µM (inactive)
O=C(OCCN1C(=O)c2cccc3c(N4CCOCC4)ccc(c23)C1=O)c1ccc(Cl)cc1Cl,EC50,[5],2.14 µM (active)
same,EC50,[6],2.14 µM (inconclusive)
same,EC50,[7],9.06 µM (inconclusive)
same,EC50,[8],6.15 µM (inconclusive)
same,EC50,[9],0.722 µM (inconclusive)
same,EC50,[10],0.722 µM (active)
same,EC50,[11],12 µM (active)
same,EC50,[12],0.331 µM (active)
same,EC50,[13],6.15 µM (active)
same,AC50,HeLa,16.5 µM (active)
same,AC50,ORF 73,15.5 µM (active)
same,EC50,"Troponin, cardiac muscle",1.11 µM (active)
same,AC50,[14],5.23 µM (active)
same,AC50,Keap1/Nrf2,7.59 µM (active)
CCC(=O)OC1(c2cccc(C)c2)CC(C)N(C)CC1C (centres undefined),EC50,[15],0.335 µM (active)
same,EC50,[16],> 92.5 µM (inactive)
same,EC50,Mu-type opioid receptor,> 92.5 µM (inactive)
same,EC50,[17],> 92.5 µM (inactive)
Cl.c1ccc2c(c1)[IH]c1ccccc1-2,Potency,[18],35.4813 µM
